{"source": "patent US6358885B1", "about": "“Substituted phenylheterocyclic herbicides” (Mississippi State University, priority 1992, dated 2002)", "key": {"soybean": {"system": "soybean", "experiment": "Test C preemergence/postemergence greenhouse plant response rating 0 to 100", "type": "in vivo, Glycine max", "conditions": "POSTEMERGENCE; for Plant response rating, Soybean: 0 to 100 scale", "method_in_brief": "(§1)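 Compounds in non-phytotoxic solvent applied preemergence to sandy loam one day after planting, postemergence at the 1–4 leaf stage, or to ~2.5 cm floodwater over silt loam.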"}, "velvetleaf": {"system": "velvetleaf", "experiment": "Test C preemergence/postemergence greenhouse plant response rating 0 to 100", "type": "in vivo, Abutilon theophrasti", "conditions": "POSTEMERGENCE; for Plant response rating, Velvetleaf: 0 to 100 scale", "method_in_brief": "as §1"}, "duck salad": {"system": "duck salad", "experiment": "Test C flood test plant response rating 0 to 100", "type": "in vivo, Heteranthera limosa", "conditions": "for Plant response rating (0 to 100), Duck salad: under POSTEMERGENCE head (flood test species); for Plant response rating Duck salad: flood test species listed under POSTEMERGENCE, 0 to 100 scale", "method_in_brief": "as §1"}, "giant foxtail": {"system": "giant foxtail", "experiment": "Test B preemergence/postemergence greenhouse plant response rating 0 to 10", "type": "in vivo, Setaria faberii", "conditions": "0 to 10 scale", "method_in_brief": "(§2)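 Test chemicals were sprayed onto freshly planted seed and, concurrently, onto young plants between the one and four leaf stage. After a twelve- to sixteen-day greenhouse period, each species was visually compared with untreated controls.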"}, "wild buckwheat [1]": {"system": "wild buckwheat", "experiment": "Test B preemergence/postemergence greenhouse plant response rating 0 to 10", "type": "in vivo, Polygonum convolvulus", "conditions": "0 to 10 scale", "method_in_brief": "as §2"}, "cotton": {"system": "cotton", "experiment": "Test C preemergence/postemergence greenhouse plant response rating 0 to 100", "type": "in vivo, Gossypium hirsutum", "conditions": "POSTEMERGENCE; for Plant response rating, Cotton: 0 to 100 scale", "method_in_brief": "as §1"}, "chickweed [2]": {"system": "chickweed", "experiment": "Test B preemergence/postemergence greenhouse plant response rating 0 to 10", "type": "in vivo, Stellaria media", "conditions": "0 to 10 scale", "method_in_brief": "as §2"}, "downy brome": {"system": "downy brome", "experiment": "Test C preemergence/postemergence greenhouse plant response rating 0 to 100", "type": "in vivo, Bromus tectorum", "conditions": "POSTEMERGENCE; for Plant response rating Downy Brome: 0 to 100 scale", "method_in_brief": "as §1"}, "sorghum": {"system": "sorghum", "experiment": "Test B preemergence/postemergence greenhouse plant response rating 0 to 10", "type": "in vivo, Sorghum bicolor", "conditions": "0 to 10 scale", "method_in_brief": "as §2"}, "sugar beet": {"system": "sugar beet", "experiment": "Test C preemergence/postemergence greenhouse plant response rating 0 to 100", "type": "in vivo, Beta vulgaris", "conditions": "POSTEMERGENCE; for Plant response rating, Sugar beet: 0 to 100 scale", "method_in_brief": "as §1"}, "barley": {"system": "barley", "experiment": "Test C preemergence/postemergence greenhouse plant response rating 0 to 100", "type": "in vivo, Hordeum vulgare", "conditions": "POSTEMERGENCE; for Plant response rating Barley Igri: 0 to 100 scale", "method_in_brief": "as §1"}, "cheatgrass": {"system": "cheatgrass", "experiment": "Test B preemergence/postemergence greenhouse plant response rating 0 to 10", "type": "in vivo, Bromus secalinus", "conditions": "0 to 10 scale", "method_in_brief": "as §2"}, "lambsquarters": {"system": "lambsquarters", "experiment": "Test C preemergence/postemergence greenhouse plant response rating 0 to 100", "type": "in vivo, Chenopodium album", "conditions": "POSTEMERGENCE; for Plant response rating Lambsquarters: 0 to 100 scale", "method_in_brief": "as §1"}, "chickweed [3]": {"system": "chickweed", "experiment": "Test C preemergence/postemergence greenhouse plant response rating 0 to 100", "type": "in vivo, Stellaria media", "conditions": "POSTEMERGENCE; for Plant response rating, Chickweed: 0 to 100 scale", "method_in_brief": "as §1"}, "wild buckwheat [4]": {"system": "wild buckwheat", "experiment": "Test C preemergence/postemergence greenhouse plant response rating 0 to 100", "type": "in vivo, Polygonum convolvulus", "conditions": "POSTEMERGENCE; for Plant response rating, Wild buckwheat: 0 to 100 scale", "method_in_brief": "as §1"}, "corn": {"system": "corn", "experiment": "Test B preemergence/postemergence greenhouse plant response rating 0 to 10", "type": "in vivo, Zea mays", "conditions": "0 to 10 scale", "method_in_brief": "as §2"}, "ryegrass": {"system": "ryegrass", "experiment": "Test C preemergence/postemergence greenhouse plant response rating 0 to 100", "type": "in vivo, Lolium multiflorum", "conditions": "POSTEMERGENCE; for Plant response rating Ryegrass: 0 to 100 scale", "method_in_brief": "as §1"}, "wild oat": {"system": "wild oat", "experiment": "Test B preemergence/postemergence greenhouse plant response rating 0 to 10", "type": "in vivo, Avena fatua", "conditions": "0 to 10 scale", "method_in_brief": "as §2"}}, "data": [{"smiles": "CCOC(=O)COc1cc(-c2nn3c(c2Cl)CCCC3)c(F)cc1Cl", "note": "[Compound 42]", "values": [{"measurement": "Plant response rating, Soybean", "setting": "soybean; 62 g/ha", "value": 60}, {"measurement": "Plant response rating, Soybean", "setting": "soybean; 125 g/ha", "value": 80}, {"measurement": "Plant response rating (0 to 100), Soybean", "setting": "soybean; Rate 16 g/ha", "value": 20}, {"measurement": "Plant response rating (0 to 100), Soybean", "setting": "soybean; Rate 31 g/ha", "value": 40}, {"measurement": "Plant response rating, Velvetleaf", "setting": "velvetleaf; 62 g/ha", "value": 100}, {"measurement": "Plant response rating, Velvetleaf", "setting": "velvetleaf; 125 g/ha", "value": 100}, {"measurement": "Plant response rating (0 to 100), Velvetleaf", "setting": "velvetleaf; Rate 16 g/ha", "value": 100}, {"measurement": "Plant response rating (0 to 100), Velvetleaf", "setting": "velvetleaf; Rate 31 g/ha", "value": 100}, {"measurement": "Plant response rating (0 to 100), Duck salad", "setting": "duck salad; Rate 16 g/ha", "value": 0}, {"measurement": "Plant response rating (0 to 100), Duck salad", "setting": "duck salad; Rate 31 g/ha", "value": 0}, {"measurement": "Plant response rating Duck salad", "setting": "duck salad; 62 g/ha", "value": 0}, {"measurement": "Plant response rating Duck salad", "setting": "duck salad; 125 g/ha", "value": 20}, {"measurement": "Plant response rating, Giant foxtail", "setting": "giant foxtail; POSTEMERGENCE, Rate 50 g/ha", "value": 3}, {"measurement": "Plant response rating, Giant foxtail", "setting": "giant foxtail; PREEMERGENCE, Rate 50 g/ha", "value": 0}, {"measurement": "Plant response rating, Giant foxtail", "setting": "giant foxtail; Rate 200 g/ha, POSTEMERGENCE", "value": 4}, {"measurement": "Plant response rating, Giant foxtail", "setting": "giant foxtail; Rate 200 g/ha, PREEMERGENCE", "value": 0}, {"measurement": "Plant response rating, Wild buckwheat", "setting": "wild buckwheat [1]; POSTEMERGENCE, Rate 50 g/ha", "value": 9}, {"measurement": "Plant response rating, Wild buckwheat", "setting": "wild buckwheat [1]; PREEMERGENCE, Rate 50 g/ha", "value": 0}, {"measurement": "Plant response rating, Wild buckwheat", "setting": "wild buckwheat [1]; Rate 200 g/ha, POSTEMERGENCE", "value": 9}, {"measurement": "Plant response rating, Wild buckwheat", "setting": "wild buckwheat [1]; Rate 200 g/ha, PREEMERGENCE", "value": 7}, {"measurement": "Plant response rating, Cotton", "setting": "cotton; 62 g/ha", "value": 100}, {"measurement": "Plant response rating, Cotton", "setting": "cotton; 125 g/ha", "value": 100}, {"measurement": "Plant response rating (0 to 100), Cotton", "setting": "cotton; Rate 16 g/ha", "value": 100}, {"measurement": "Plant response rating (0 to 100), Cotton", "setting": "cotton; Rate 31 g/ha", "value": 100}, {"measurement": "Plant response rating, Chickweed", "setting": "chickweed [2]; POSTEMERGENCE, Rate 50 g/ha", "value": 4}, {"measurement": "Plant response rating, Chickweed", "setting": "chickweed [2]; POSTEMERGENCE, Rate 200 g/ha", "value": 8}, {"measurement": "Plant response rating, Chickweed", "setting": "chickweed [2]; PREEMERGENCE, Rate 50 g/ha", "value": 0}, {"measurement": "Plant response rating, Chickweed", "setting": "chickweed [2]; Rate 200 g/ha, PREEMERGENCE", "value": 0}, {"measurement": "Plant response rating Downy Brome", "setting": "downy brome; 62 g/ha", "value": 30}, {"measurement": "Plant response rating Downy Brome", "setting": "downy brome; 125 g/ha", "value": 50}, {"measurement": "Plant response rating (0 to 100), Downy Brome", "setting": "downy brome; Rate 16 g/ha", "value": 20}, {"measurement": "Plant response rating (0 to 100), Downy Brome", "setting": "downy brome; Rate 31 g/ha", "value": 30}, {"measurement": "Plant response rating, Sorghum", "setting": "sorghum; POSTEMERGENCE, Rate 50 g/ha", "value": 4}, {"measurement": "Plant response rating, Sorghum", "setting": "sorghum; PREEMERGENCE, Rate 50 g/ha", "value": 0}, {"measurement": "Plant response rating, Sorghum", "setting": "sorghum; Rate 200 g/ha, POSTEMERGENCE", "value": 5}, {"measurement": "Plant response rating, Sorghum", "setting": "sorghum; Rate 200 g/ha, PREEMERGENCE", "value": 0}, {"measurement": "Plant response rating, Sugar beet", "setting": "sugar beet; 62 g/ha", "value": 100}, {"measurement": "Plant response rating, Sugar beet", "setting": "sugar beet; 125 g/ha", "value": 100}, {"measurement": "Plant response rating (0 to 100), Sugar beet", "setting": "sugar beet; Rate 16 g/ha", "value": 100}, {"measurement": "Plant response rating (0 to 100), Sugar beet", "setting": "sugar beet; Rate 31 g/ha", "value": 100}, {"measurement": "Plant response rating Barley Igri", "setting": "barley; 62 g/ha", "value": 30}, {"measurement": "Plant response rating Barley Igri", "setting": "barley; 125 g/ha", "value": 40}, {"measurement": "Plant response rating (0 to 100), Barley Igri", "setting": "barley; Rate 16 g/ha", "value": 20}, {"measurement": "Plant response rating (0 to 100), Barley Igri", "setting": "barley; Rate 31 g/ha", "value": 30}, {"measurement": "Plant response rating, Cheatgrass", "setting": "cheatgrass; POSTEMERGENCE, Rate 50 g/ha", "value": 1}, {"measurement": "Plant response rating, Cheatgrass", "setting": "cheatgrass; POSTEMERGENCE, Rate 200 g/ha", "value": 3}, {"measurement": "Plant response rating, Cheatgrass", "setting": "cheatgrass; PREEMERGENCE, Rate 50 g/ha", "value": 0}, {"measurement": "Plant response rating, Cheatgrass", "setting": "cheatgrass; Rate 200 g/ha, PREEMERGENCE", "value": 0}, {"measurement": "Plant response rating Lambsquarters", "setting": "lambsquarters; 62 g/ha", "value": 100}, {"measurement": "Plant response rating Lambsquarters", "setting": "lambsquarters; 125 g/ha", "value": 100}, {"measurement": "Plant response rating (0 to 100), Lambsquarters", "setting": "lambsquarters; Rate 16 g/ha", "value": 100}, {"measurement": "Plant response rating (0 to 100), Lambsquarters", "setting": "lambsquarters; Rate 31 g/ha", "value": 100}, {"measurement": "Plant response rating, Chickweed", "setting": "chickweed [3]; 62 g/ha", "value": 50}, {"measurement": "Plant response rating, Chickweed", "setting": "chickweed [3]; 125 g/ha", "value": 60}, {"measurement": "Plant response rating (0 to 100), Chickweed", "setting": "chickweed [3]; Rate 16 g/ha", "value": 20}, {"measurement": "Plant response rating (0 to 100), Chickweed", "setting": "chickweed [3]; Rate 31 g/ha", "value": 40}, {"measurement": "Plant response rating, Wild buckwheat", "setting": "wild buckwheat [4]; 62 g/ha", "value": 100}, {"measurement": "Plant response rating, Wild buckwheat", "setting": "wild buckwheat [4]; 125 g/ha", "value": 100}, {"measurement": "Plant response rating (0 to 100), Wild buckwheat", "setting": "wild buckwheat [4]; Rate 16 g/ha", "value": 60}, {"measurement": "Plant response rating (0 to 100), Wild buckwheat", "setting": "wild buckwheat [4]; Rate 31 g/ha", "value": 70}, {"measurement": "Plant response rating, Corn", "setting": "corn; POSTEMERGENCE, Rate 50 g/ha", "value": 7}, {"measurement": "Plant response rating, Corn", "setting": "corn; POSTEMERGENCE, Rate 200 g/ha", "value": 9}, {"measurement": "Plant response rating, Corn", "setting": "corn; PREEMERGENCE, Rate 50 g/ha", "value": 0}, {"measurement": "Plant response rating, Corn", "setting": "corn; Rate 200 g/ha, PREEMERGENCE", "value": 0}, {"measurement": "Plant response rating Ryegrass", "setting": "ryegrass; 62 g/ha", "value": 30}, {"measurement": "Plant response rating Ryegrass", "setting": "ryegrass; 125 g/ha", "value": 40}, {"measurement": "Plant response rating (0 to 100), Ryegrass", "setting": "ryegrass; Rate 16 g/ha", "value": 10}, {"measurement": "Plant response rating (0 to 100), Ryegrass", "setting": "ryegrass; Rate 31 g/ha", "value": 20}, {"measurement": "Plant response rating, Wild oat", "setting": "wild oat; POSTEMERGENCE, Rate 50 g/ha", "value": 1}, {"measurement": "Plant response rating, Wild oat", "setting": "wild oat; PREEMERGENCE, Rate 50 g/ha", "value": 0}, {"measurement": "Plant response rating, Wild oat", "setting": "wild oat; Rate 200 g/ha, POSTEMERGENCE", "value": 3}]}]}
